Assay results taken from patent US20200385371A1 (Propellon Therapeutics Inc., priority 2017, published 2020).

How the values were obtained:
[1] = target: T1, WDR5 (Homo sapiens, UniProt P61964); assay: Surface Plasmon Resonance (SPR) assay; format: binding; design: Full length WDR5 with an N-terminal His tag and C-terminal AviTag; His tag (N); made in house; host or cells: E. coli; details: read-out: SPR Kd
Outline: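 Full-length biotinylated WDR5 (N-His, C-AviTag, E. coli) captured (~3000 RU) on streptavidin SA chip; Biacore T200. HBS-EP pH 7.4 plus 5% DMSO running buffer, 40 μl/min.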

[2] = target: T1, WDR5; assay: Fluorescence Polarization (FP) binding assay
Outline: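 Buffer was pH 6.5 sodium phosphate (80 mM) with 20 mM KCl and 0.008% Triton X-100; 9-Ala-FAM probe at 20 nM used 0.05 μM WDR5 and 480/540 nm polarization, H3 (1-15) probe at 30 nM used 0.3 μM WDR5 and 485/528 nm. Quadruplicate data were hyperbola-fitted to give Kdisp.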

[3] = tested on: MV4-11 cells; assay: Cell proliferation assay (ATPlite); format: cell-based; details: Homo sapiens, 120 h; MV4-11 cells, five days; read-out: GI MV411 EC50
Outline: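 ATPlite luminescence after five days' culture (37° C, 5% CO2) gives viability. Compounds dosed in 10 concentrations up to 10 μM against DMSO; 1,000 cells/well seeded in Alpha-MEM/10% FBS.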

| Structure (SMILES) | Kd [1] [nM] | IC50 [2] [nM] | EC50 [3] [nM] |
| --- | --- | --- | --- |
| C[C@@H]1CN(c2cc(F)c(C3=CCN(c4ncc(F)cn4)CC3)c(F)c2NC(=O)c2c[nH]c(=O)cc2C(F)(F)F)C[C@H](C)N1C [Example 145, N-(2,4-difluoro-3-(1-(5-fluoropyrimidin-2-yl)-1,2,3,6-tetrahydropyridin-4-yl)-6-((3S,5R)-3,4,5-trimethylpiperazin-1-yl)phenyl)-6-oxo-4-(trifluoromethyl)-1,6-dihydropyridine-3-carboxamide] | 0.84 | 13.9 | 58.9 |
| C[C@@H]1CN(c2ccc(-c3c(F)cc(N4CCN(C)[C@@H](C)C4)c(NC(=O)c4c[nH]c(=O)cc4C(F)(F)F)c3F)cn2)CCO1 [Example 169, N-(6-((S)-3,4-dimethylpiperazin-1-yl)-2,4-difluoro-3-(6-((R)-2-methylmorpholino)pyridin-3-yl)phenyl)-6-oxo-4-(trifluoromethyl)-1,6-dihydropyridine-3-carboxamide] | 0.99 | 16.7 | 51.4 |
| C[C@H]1CN(c2cc(F)c(C3=CCN(C(=O)OC4CC(F)(F)C4)CC3)c(F)c2NC(=O)c2c[nH]c(=O)cc2C(F)(F)F)CCN1C [Example 47, 3,3-Difluorocyclobutyl (S)-4-(4-(3,4-dimethylpiperazin-1-yl)-2,6-difluoro-3-(6-oxo-4-(trifluoromethyl)-1,6-dihydropyridine-3-carboxamido)phenyl)-3,6-dihydropyridine-1(2H)-carboxylate] | 1.35 | 17.5 | 63 |
| C[C@@H]1CN(c2cc(F)c(C3=CCCN(c4ncc(C#N)s4)C3)c(F)c2NC(=O)c2c[nH]c(=O)cc2C(F)(F)F)C[C@H](C)N1C [Example 149, N-(3-(1-(5-cyanothiazol-2-yl)-1,2,5,6-tetrahydropyridin-3-yl)-2,4-difluoro-6-((3S,5R)-3,4,5-trimethylpiperazin-1-yl)phenyl)-6-oxo-4-(trifluoromethyl)-1,6-dihydropyridine-3-carboxamide] | 1.8 | 14.6 | 106 |
| C[C@@H]1CN(c2cc(F)c(-c3ccc(F)c(C(N)=O)c3)c(F)c2NC(=O)c2c[nH]c(=O)cc2C(F)(F)F)C[C@H](C)N1C [Example 28, N-(3′-carbamoyl-2,4′,6-trifluoro-4-((3S,5R)-3,4,5-trimethylpiperazin-1-yl)-[1,1′-biphenyl]-3-yl)-6-oxo-4-(trifluoromethyl)-1,6-dihydropyridine-3-carboxamide] | 5.01 | 36.2 | 2870 |
| CC(C)OC(=O)N1CC=C(c2c(F)cc(N3C[C@@H](C)N(C)[C@@H](C)C3)c(NC(=O)c3c[nH]c(=O)cc3C(F)(F)F)c2F)CC1 [Example 133] | 2.62 | 12.3 | 58.5 |
| C[C@H]1CN(c2cc(F)c(C3=CCCN(c4ccnc(C#N)n4)C3)c(F)c2NC(=O)c2c[nH]c(=O)cc2C(F)(F)F)CCN1C [Example 114, (S)—N-(3-(1-(2-cyanopyrimidin-4-yl)-1,2,5,6-tetrahydropyridin-3-yl)-6-(3,4-dimethylpiperazin-1-yl)-2,4-difluorophenyl)-6-oxo-4-(trifluoromethyl)-1,6-dihydropyridine-3-carboxamide] | 2.42 | 15.9 | 36.6 |
| C[C@H]1CN(c2cc(F)c(C3=CCCN(c4ccnc(C#N)n4)C3)c(F)c2NC(=O)c2c[nH]c(=O)cc2C(F)F)CCN1C [Example 113, (S)—N-(3-(1-(2-cyanopyrimidin-4-yl)-1,2,5,6-tetrahydropyridin-3-yl)-6-(3,4-dimethylpiperazin-1-yl)-2,4-difluorophenyl)-4-(difluoromethyl)-6-oxo-1,6-dihydropyridine-3-carboxamide] | 1.99 | 14.8 | 85.9 |
| C[C@H]1CN(c2cc(F)c(C3=CCN(C(=O)OC4CC(F)(F)C4)CC3)c(F)c2NC(=O)c2c[nH]c(=O)cc2C(F)F)CCN1C [Example 42, 3,3-Difluorocyclobutyl (S)-4-(3-(4-(difluoromethyl)-6-oxo-1,6-dihydropyridine-3-carboxamido)-4-(3,4-dimethylpiperazin-1-yl)-2,6-difluorophenyl)-3,6-dihydropyridine-1(2H)-carboxylate] | 2.38 | 11.2 | 281 |
| C[C@@H]1CN(c2cc(F)c(-c3ccc4c(c3)OCCO4)c(F)c2NC(=O)c2c[nH]c(=O)cc2C(F)(F)F)C[C@H](C)N1C [Example 72, N-(3-(2,3-dihydrobenzo[b][1,4]dioxin-6-yl)-2,4-difluoro-6-((3S,5R)-3,4,5-trimethylpiperazin-1-yl)phenyl)-6-oxo-4-(trifluoromethyl)-1,6-dihydropyridine-3-carboxamide] | 0.7 | 18.2 | 99.1 |
| C[C@@H]1CN(c2cc(F)c(-c3ccnc(N4CCOCC4)c3)c(F)c2NC(=O)c2c[nH]c(=O)cc2C(F)(F)F)C[C@H](C)N1C [Example 69, N-(2,4-difluoro-3-(2-morpholinopyridin-4-yl)-6-((3S,5R)-3,4,5-trimethylpiperazin-1-yl)phenyl)-6-oxo-4-(trifluoromethyl)-1,6-dihydropyridine-3-carboxamide] | 3.01 | 23.2 | 417 |

More lines, now with the values ahead:

| Kd [1] [nM] | IC50 [2] [nM] | EC50 [3] [nM] | Structure (SMILES) |
| --- | --- | --- | --- |
| 0.78 | 14.8 | 23.8 | C[C@@H]1CN(c2ncc(-c3c(F)cc(N4CCN(C)[C@@H](C)C4)c(NC(=O)c4c[nH]c(=O)cc4C(F)(F)F)c3F)cn2)C[C@H](C)O1 [Example 55, N-(3-(2-((2S,6R)-2,6-dimethylmorpholino)pyrimidin-5-yl)-6-((S)-3,4-dimethylpiperazin-1-yl)-2,4-difluorophenyl)-6-oxo-4-(trifluoromethyl)-1,6-dihydropyridine-3-carboxamide] |
| 1.25 | 15.1 | 99.1 | C[C@@H]1CN(c2nccc(-c3c(F)cc(N4CCN(C)[C@@H](C)C4)c(NC(=O)c4c[nH]c(=O)cc4C(F)(F)F)c3F)n2)C[C@H](C)O1 [Example 58, N-(3-(2-((2S,6R)-2,6-dimethylmorpholino)pyrimidin-4-yl)-6-((S)-3,4-dimethylpiperazin-1-yl)-2,4-difluorophenyl)-6-oxo-4-(trifluoromethyl)-1,6-dihydropyridine-3-carboxamide] |
| 0.7 | 13.8 | 9.38 | C[C@@H]1CN(c2ncc(-c3c(F)cc(N4CCN(C)[C@@H](C)C4)c(NC(=O)c4c[nH]c(=O)cc4C(F)F)c3F)cn2)C[C@@H](C)O1 [Example 115, 4-(Difluoromethyl)-N-(3-(2-((2R,6R)-2,6-dimethylmorpholino)pyrimidin-5-yl)-6-((S)-3,4-dimethylpiperazin-1-yl)-2,4-difluorophenyl)-6-oxo-1,6-dihydropyridine-3-carboxamide] |
| 1.98 | 12.5 | 22.1 | CC(C)[C@H]1CN(c2ncc(-c3c(F)cc(N4C[C@@H](C)N(C)[C@@H](C)C4)c(NC(=O)c4c[nH]c(=O)cc4C(F)F)c3F)cn2)CCO1 [Example 122, N-(2,4-Difluoro-3-(2-((S)-2-isopropylmorpholino)pyrimidin-5-yl)-6-((3S,5R)-3,4,5-trimethylpiperazin-1-yl)phenyl)-4-(difluoromethyl)-6-oxo-1,6-dihydropyridine-3-carboxamide] |
| 0.8 | 12.4 | 55.9 | CC(C)[C@@H]1CN(c2nccc(-c3c(F)cc(N4CCN(C)[C@@H](C)C4)c(NC(=O)c4c[nH]c(=O)cc4C(F)F)c3F)n2)CCO1 [Example 124, 4-(Difluoromethyl)-N-(6-((S)-3,4-dimethylpiperazin-1-yl)-2,4-difluoro-3-(2-((R)-2-isopropylmorpholino)pyrimidin-4-yl)phenyl)-6-oxo-1,6-dihydropyridine-3-carboxamide] |
| 0.95 | 12.2 | 12.2 | CC(C)[C@@H]1CN(c2ncc(-c3c(F)cc(N4C[C@@H](C)N(C)[C@@H](C)C4)c(NC(=O)c4c[nH]c(=O)cc4C(F)F)c3F)cn2)CCO1 [Example 118, N-(2,4-difluoro-3-(2-((R)-2-isopropylmorpholino)pyrimidin-5-yl)-6-((3S,5R)-3,4,5-trimethylpiperazin-1-yl)phenyl)-4-(difluoromethyl)-6-oxo-1,6-dihydropyridine-3-carboxamide] |
| 0.49 | 16.1 | 51.9 | C[C@H]1CN(c2ccc(-c3c(F)cc(N4CCN(C)[C@@H](C)C4)c(NC(=O)c4c[nH]c(=O)cc4C(F)(F)F)c3F)cn2)CCO1 [Example 171, N-(6-((S)-3,4-dimethylpiperazin-1-yl)-2,4-difluoro-3-(6-((S)-2-methylmorpholino)pyridin-3-yl)phenyl)-6-oxo-4-(trifluoromethyl)-1,6-dihydropyridine-3-carboxamide] |
